In patent publication US8975398B2, “NAMPT inhibitors” (AbbVie Inc., priority 2012, dated 2015) one finds IC50 data, which are given here for 38 compounds.

What is called IC50 is the concentration at which inhibition is half-maximal.

Each structure is given as a SMILES string.

In this assay the test system is PC3 cells. Put plainly: NAMPT Cell Proliferation Assay (Cell Titer Glo; also performed in the presence of 0.3 mM nicotinamide mononucleotide). It counts as cell-based. Particulars: Homo sapiens, PC-3, 120 h, 5 days incubation, cell viability by Cell Titer Glo. The essentials:
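Cell Titer Glo viability after 5-day exposure (37° C, 5% CO2); PC3, 500 cells/well, RPMI + 10% heat-inactivated FBS, overnight attachment before dosing. Dose range 10 μM to 1×10^−5 μM, 10-fold steps. IC50 = sigmoidal fit of % inhibition.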
(In ATP-based viability assays light output follows the ATP content of the culture.)
As to `O=C(Nc1ccccc1)c1ccc(NC(=O)C2CN(c3cccnn3)C2)cc1` [Example 972, N-[4-(phenylcarbamoyl)phenyl]-1-(pyridazin-3-yl)azetidine-3-carboxamide], the IC50 was 667 nM. For the compound `CC(C)(C)CNC(=O)c1ccc(NC(=O)C2CN(c3cccnn3)C2)cc1` [Example 973, N-{4-[(2,2-dimethylpropyl)carbamoyl]phenyl}-1-(pyridazin-3-yl)azetidine-3-carboxamide], the IC50 was 5.53 nM.

Regarding `COCC(C)(C)CNC(=O)c1ccc(NC(=O)C2CN(c3cccnn3)C2)cc1` [Example 974, N-{4-[(3-methoxy-2,2-dimethylpropyl)carbamoyl]phenyl}-1-(pyridazin-3-yl)azetidine-3-carboxamide], the IC50 was 7.84 nM. To `O=C(NCCC1CC1)c1ccc(NC(=O)C2CN(c3cccnn3)C2)cc1` [Example 975, N-{4-[(2-cyclopropylethyl)carbamoyl]phenyl}-1-(pyridazin-3-yl)azetidine-3-carboxamide] belongs 98 nM; to `CCC1CCCCN1CCNC(=O)c1ccc(NC(=O)C2CN(c3cccnn3)C2)cc1` (centres unmarked) [Example 976, N-(4-{[2-(2-ethylpiperidin-1-yl)ethyl]carbamoyl}phenyl)-1-(pyridazin-3-yl)azetidine-3-carboxamide], 61.2 nM. To `O=C(NCC1CCC1)c1ccc(NC(=O)C2CN(c3cccnn3)C2)cc1` [Example 977, N-{4-[(cyclobutylmethyl)carbamoyl]phenyl}-1-(pyridazin-3-yl)azetidine-3-carboxamide] belongs 12.4 nM. The value for `CC[C@H](C)NC(=O)c1ccc(NC(=O)C2CN(c3cccnn3)C2)cc1` [Example 978, N-{4-[(2S)-butan-2-ylcarbamoyl]phenyl}-1-(pyridazin-3-yl)azetidine-3-carboxamide] was 1070 nM. Consider `CCCCNC(=O)c1ccc(NC(=O)C2CN(c3cccnn3)C2)cc1` [Example 979, N-[4-(butylcarbamoyl)phenyl]-1-(pyridazin-3-yl)azetidine-3-carboxamide], for which the IC50 turned out to be 72 nM.

For the compound `CC1(C)CC(NC(=O)c2ccc(NC(=O)C3CN(c4cccnn4)C3)cc2)CCO1` (centres unmarked) [Example 980, N-{4-[(2,2-dimethyltetrahydro-2H-pyran-4-yl)carbamoyl]phenyl}-1-(pyridazin-3-yl)azetidine-3-carboxamide], the IC50 stood at 82.2 nM. To `C[C@H](NC(=O)c1ccc(NC(=O)C2CN(c3cccnn3)C2)cc1)C1CC1` [Example 981, N-(4-{[(1S)-1-cyclopropylethyl]carbamoyl}phenyl)-1-(pyridazin-3-yl)azetidine-3-carboxamide] belongs 1060 nM. The value for `CN(CCNC(=O)c1ccc(NC(=O)C2CN(c3cccnn3)C2)cc1)c1ccccc1` [Example 982, N-[4-({2-[methyl(phenyl)amino]ethyl}carbamoyl)phenyl]-1-(pyridazin-3-yl)azetidine-3-carboxamide] was 83.5 nM. To `O=C(NC1(C2CC2)CC1)c1ccc(NC(=O)C2CN(c3cccnn3)C2)cc1` [Example 983, N-{4-[1,1′-bi(cyclopropyl)-1-ylcarbamoyl]phenyl}-1-(pyridazin-3-yl)azetidine-3-carboxamide] belongs 604 nM; to `O=C(Nc1ccsc1)c1ccc(NC(=O)C2CN(c3cccnn3)C2)cc1` [Example 984, 1-(pyridazin-3-yl)-N-[4-(thiophen-3-ylcarbamoyl)phenyl]azetidine-3-carboxamide], 696 nM; to `C[C@@H](NC(=O)c1ccc(NC(=O)C2CN(c3cccnn3)C2)cc1)C1CC1` [Example 985, N-(4-{[(1R)-1-cyclopropylethyl]carbamoyl}phenyl)-1-(pyridazin-3-yl)azetidine-3-carboxamide], 635 nM. Regarding `CN1CCC(NC(=O)c2ccc(NC(=O)C3CN(c4cccnn4)C3)cc2)CC1` [Example 986, N-{4-[(1-methylpiperidin-4-yl)carbamoyl]phenyl}-1-(pyridazin-3-yl)azetidine-3-carboxamide], the IC50 turned out to be 7470 nM. The value for `CC[C@@H](C)NC(=O)c1ccc(NC(=O)C2CN(c3cccnn3)C2)cc1` [Example 987, N-{4-[(2R)-butan-2-ylcarbamoyl]phenyl}-1-(pyridazin-3-yl)azetidine-3-carboxamide] was 609 nM. The value for `O=C(NC1CN2CCC1CC2)c1ccc(NC(=O)C2CN(c3cccnn3)C2)cc1` (centres unmarked) [Example 988, N-[4-(1-azabicyclo[2.2.2]oct-3-ylcarbamoyl)phenyl]-1-(pyridazin-3-yl)azetidine-3-carboxamide] was 1240 nM; that for `O=C(NCC1CCOC1)c1ccc(NC(=O)C2CN(c3cccnn3)C2)cc1` (centres unmarked) [Example 989, 1-(pyridazin-3-yl)-N-{4-[(tetrahydrofuran-3-ylmethyl)carbamoyl]phenyl}azetidine-3-carboxamide] was 602 nM. The value for `O=C(NCC1COC1)c1ccc(NC(=O)C2CN(c3cccnn3)C2)cc1` [Example 990, N-{4-[(oxetan-3-ylmethyl)carbamoyl]phenyl}-1-(pyridazin-3-yl)azetidine-3-carboxamide] was 6810 nM; that for `CC1CC1NC(=O)c1ccc(NC(=O)C2CN(c3cccnn3)C2)cc1` (centres unmarked) [Example 991, N-{4-[(2-methylcyclopropyl)carbamoyl]phenyl}-1-(pyridazin-3-yl)azetidine-3-carboxamide] was 760 nM; that for `O=C(NC1CCC1)c1ccc(NC(=O)C2CN(c3cccnn3)C2)cc1` [Example 992, N-[4-(cyclobutylcarbamoyl)phenyl]-1-(pyridazin-3-yl)azetidine-3-carboxamide] was 1510 nM. In the case of `CC1(NC(=O)c2ccc(NC(=O)C3CN(c4cccnn4)C3)cc2)CC1` [Example 993, N-{4-[(1-methylcyclopropyl)carbamoyl]phenyl}-1-(pyridazin-3-yl)azetidine-3-carboxamide], the IC50 worked out at 809 nM. For `COC(C)(C)CNC(=O)c1ccc(NC(=O)C2CN(c3cccnn3)C2)cc1` [Example 994, N-{4-[(2-methoxy-2-methylpropyl)carbamoyl]phenyl}-1-(pyridazin-3-yl)azetidine-3-carboxamide], the IC50 was 59 nM.

As to `O=C(NCC1CC1)c1ccc(NC(=O)C2CN(c3cccnn3)C2)cc1` [Example 995, N-{4-[(cyclopropylmethyl)carbamoyl]phenyl}-1-(pyridazin-3-yl)azetidine-3-carboxamide], the IC50 is 245 nM. As for `O=C(NC[C@H]1CCCO1)c1ccc(NC(=O)C2CN(c3cccnn3)C2)cc1` [Example 996, 1-(pyridazin-3-yl)-N-(4-{[(2R)-tetrahydrofuran-2-ylmethyl]carbamoyl}phenyl)azetidine-3-carboxamide], the IC50 is 104 nM. The value for `O=C(NCCC(F)(F)F)c1ccc(NC(=O)C2CN(c3cccnn3)C2)cc1` [Example 997, 1-(pyridazin-3-yl)-N-{4-[(3,3,3-trifluoropropyl)carbamoyl]phenyl}azetidine-3-carboxamide] was 93.5 nM; that for `CN1CCCC(NC(=O)c2ccc(NC(=O)C3CN(c4cccnn4)C3)cc2)C1` (centres unmarked) [Example 998, N-{4-[(1-methylpiperidin-3-yl)carbamoyl]phenyl}-1-(pyridazin-3-yl)azetidine-3-carboxamide] was 1280 nM; that for `CC1(CNC(=O)c2ccc(NC(=O)C3CN(c4cccnn4)C3)cc2)COC1` [Example 999, N-(4-{[(3-methyloxetan-3-yl)methyl]carbamoyl}phenyl)-1-(pyridazin-3-yl)azetidine-3-carboxamide] was 250 nM. To `O=C(NC[C@@H]1CCCO1)c1ccc(NC(=O)C2CN(c3cccnn3)C2)cc1` [Example 1000, 1-(pyridazin-3-yl)-N-(4-{[(2S)-tetrahydrofuran-2-ylmethyl]carbamoyl}phenyl)azetidine-3-carboxamide] belongs 77 nM; to `O=C(NCC1CCOCC1)c1ccc(NC(=O)C2CN(c3cccnn3)C2)cc1` [Example 1001, 1-(pyridazin-3-yl)-N-{4-[(tetrahydro-2H-pyran-4-ylmethyl)carbamoyl]phenyl}azetidine-3-carboxamide], 53.2 nM. The value for `O=C(NC1CCOCC1)c1ccc(NC(=O)C2CN(c3cccnn3)C2)cc1` [Example 1002, 1-(pyridazin-3-yl)-N-[4-(tetrahydro-2H-pyran-4-ylcarbamoyl)phenyl]azetidine-3-carboxamide] was 911 nM; that for `CN1CCCC(CNC(=O)c2ccc(NC(=O)C3CN(c4cccnn4)C3)cc2)C1` (centres unmarked) [Example 1003, N-(4-{[(1-methylpiperidin-3-yl)methyl]carbamoyl}phenyl)-1-(pyridazin-3-yl)azetidine-3-carboxamide] was 1070 nM. In the case of `O=C(NC1CC1)c1ccc(NC(=O)C2CN(c3cccnn3)C2)cc1` [Example 1004, N-[4-(cyclopropylcarbamoyl)phenyl]-1-(pyridazin-3-yl)azetidine-3-carboxamide], the IC50 was found to be 7920 nM. For the compound `O=C(NC1CCCC1)c1ccc(NC(=O)C2CN(c3cccnn3)C2)cc1` [Example 1005, N-[4-(cyclopentylcarbamoyl)phenyl]-1-(pyridazin-3-yl)azetidine-3-carboxamide], the IC50 worked out at 592 nM.

Regarding `O=C(NCc1ccccc1)c1ccc(NC(=O)C2CN(c3cccnn3)C2)cc1` [Example 1006, N-[4-(benzylcarbamoyl)phenyl]-1-(pyridazin-3-yl)azetidine-3-carboxamide], the IC50 was 5.36 nM. The value for `O=C(Nc1cccc(F)c1)c1ccc(NC(=O)C2CN(c3cccnn3)C2)cc1` [Example 1007, N-{4-[(3-fluorophenyl)carbamoyl]phenyl}-1-(pyridazin-3-yl)azetidine-3-carboxamide] was 56.7 nM.

For `CCCNC(=O)c1ccc(NC(=O)C2CN(c3cccnn3)C2)cc1` [Example 1008, N-[4-(propylcarbamoyl)phenyl]-1-(pyridazin-3-yl)azetidine-3-carboxamide], the IC50 was 299 nM. To `O=C(Nc1ccc(F)cc1)c1ccc(NC(=O)C2CN(c3cccnn3)C2)cc1` [Example 1009, N-{4-[(4-fluorophenyl)carbamoyl]phenyl}-1-(pyridazin-3-yl)azetidine-3-carboxamide] belongs 81.8 nM.
